Reference: paper PMC11013491, “Triterpenoids from the Leaves of Diospyros digyna and Their PTP1B Inhibitory Activity” (Molecules, 2024)

Each compound was assayed against T1, PTP1B (Homo sapiens, UniProt P18031) (assay: PTP1B inhibition assay (pNPP substrate)). Settings: human recombinant PTP1B, 37 °C, 30 min, triplicate, means ± SD, read-out: PTP1B inhibitory activity IC50.
T1 construct: purchased Abcam, Cambridge, UK
T1 sequence (P18031 1-435): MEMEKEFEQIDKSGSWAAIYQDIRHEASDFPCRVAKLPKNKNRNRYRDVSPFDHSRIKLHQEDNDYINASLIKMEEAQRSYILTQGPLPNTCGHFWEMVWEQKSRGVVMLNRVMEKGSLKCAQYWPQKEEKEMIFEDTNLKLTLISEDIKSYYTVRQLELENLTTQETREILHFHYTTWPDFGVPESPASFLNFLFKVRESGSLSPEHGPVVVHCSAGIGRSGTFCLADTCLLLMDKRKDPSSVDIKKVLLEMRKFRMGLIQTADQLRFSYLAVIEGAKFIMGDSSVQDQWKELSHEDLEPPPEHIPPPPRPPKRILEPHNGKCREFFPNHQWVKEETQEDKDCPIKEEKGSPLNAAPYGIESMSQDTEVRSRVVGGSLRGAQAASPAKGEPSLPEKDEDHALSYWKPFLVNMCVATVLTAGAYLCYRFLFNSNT
Format: biochemical
Procedure: The inhibitory activity of the isolated compounds against PTP1B (Abcam, Cambridge, UK, human recombinant) was assayed according to the method reported previously. The reagent p-nitrophenyl phosphate (pNPP) was used as the substrate, and oleanolic acid was used as the positive control. In brief, a 100 μL assay mixture containing 1 μg/mL PTP1B, samples, 4 mM pNPP, 55 mM NaCl, 2.2 mM DTT, 1.1 mM EDTA, and […] in 11 mM Tris-HCl, pH 7.5, was incubated at 37 °C for 30 min in a 96-well plate. The absorbance of 405 nm was measured by a microplate reader. Data were analyzed by GraphPad Prism v.10.2.0 software. All data were obtained in triplicate and presented as means ± SD.

Compared with `C=C1CCC2(C(=O)O)CCC3(C)C(=CCC4C5(C)CC(O)C(OC(=O)C=Cc6ccc(O)cc6)C(C)(C)C5CCC43C)C2C1C` (stereo not drawn) [Compound 4, 3β-trans-p-coumaroyloxy-2α-hydroxy-12,20(30)-ursadien-28-oic acid], `C=C1CC[C@]2(C(=O)O)CC[C@]3(C)C(=CC[C@@H]4[C@@]5(C)C[C@@H](O)[C@@H](OC(=O)/C=C/c6ccc(O)cc6)C(C)(C)[C@@H]5CC[C@]43C)[C@@H]2[C@H]1C` [Compound 15, 3α-trans-coumaroyloxy-2α-hydroxy-12,20(30)-dien-28-ursolic acid] is 2.8-fold lower in IC50: 48.7 ± 5.17 µM for the first, 17.1 ± 1.67 µM for the second. The second is the more potent here.

`C=C1CCC2(C(=O)O)CCC3(C)C(=CCC4C5(C)CC(O)C(OC(=O)C=Cc6ccc(O)c(OC)c6)C(C)(C)C5CCC43C)C2C1C` (stereo not drawn) [Compound 5, 3β-trans-feruloyloxy-2α-hydroxy-12,20(30)-ursadien-28-oic acid] and `C=C1CC[C@]2(C(=O)O)CC[C@]3(C)C(=CC[C@@H]4[C@@]5(C)C[C@@H](O)[C@@H](OC(=O)/C=C/c6ccc(O)c(OC)c6)C(C)(C)[C@@H]5CC[C@]43C)[C@@H]2[C@H]1C` [Compound 6, 3α-trans-feruloyloxy-2α-hydroxy-12,20(30)-ursadien-28-oic acid] are within 1.5-fold of each other in IC50: 23.7 ± 0.73 µM for the first, 34 ± 4.88 µM for the second.

`C[C@H]1[C@H](C)CC[C@]2(C(=O)O)CC[C@]3(C)C(=CC[C@@H]4[C@@]5(C)C[C@@H](O)[C@H](OC(=O)/C=C\c6ccc(O)cc6)C(C)(C)[C@@H]5CC[C@]43C)[C@H]12` [Compound 10, 3β-O-cis-p-coumaroyl-2α-hydroxy-urs-12-en-28-oic acid] and `C[C@H]1[C@H](C)CC[C@]2(C(=O)O)CC[C@]3(C)C(=CC[C@@H]4[C@@]5(C)C[C@@H](O)[C@H](OC(=O)/C=C/c6ccc(O)cc6)C(C)(C)[C@@H]5CC[C@]43C)[C@H]12` [Compound 11, jacoumaric acid] are within 1.5-fold of each other in IC50: 19.2 ± 0.22 µM for the first, 26.2 ± 1.31 µM for the second.

Going from `COc1cc(/C=C\C(=O)O[C@H]2[C@H](O)C[C@]3(C)[C@H]4CC=C5[C@@H]6[C@@H](C)[C@H](C)CC[C@]6(C(=O)O)CC[C@@]5(C)[C@]4(C)CC[C@H]3C2(C)C)ccc1O` [Compound 12, 3β-O-cis-feruloyl-2α-hydroxy-urs-12-en-28-oic acid] to `COc1cc(/C=C/C(=O)O[C@H]2[C@H](O)C[C@]3(C)[C@H]4CC=C5[C@@H]6[C@@H](C)[C@H](C)CC[C@]6(C(=O)O)CC[C@@]5(C)[C@]4(C)CC[C@H]3C2(C)C)ccc1O` [Compound 13, 3β-O-trans-feruloyl-2α-hydroxy-urs-12-en-28-oic acid], the IC50 falls from 16.2 ± 0.57 µM to 10.3 ± 1.21 µM (1.6-fold).
